Measured values from US20240002379A1, “ASYMMETRIC CONJUGATE COMPOUNDS” (Pheon Therapeutics Ltd., priority 2016, published 2024).

What was measured:
[1] = system: fluorescently labelled DNA duplex 5′-[…]-3′; test: FRET DNA melting, FIG. 17 middle sequence; type: binding; conditions: suggests interstrand cross-link formation
Description: (§1) Further FRET DNA melting studies were undertaken on a number of molecules using three fluorescently labelled sequences. The sequences (FIG. 17) were designed to provide additional evidence that the series can form inter- and intrastrand cross-links. Inosines were inserted in place of traditional DNA bases in some cases to limit the number of binding sites available for the compounds to interact with. The short duplexes used in this FRET study are relatively unstable in the duplex form with a melting temperature below 30° C. so that, in the absence of ligand, a large part of the melting occurs below the starting temperature of the experiment. […] Increasing concentrations of 13 cause a greater amount of the melting transition to appear at the higher temperature (i.e. a greater number of the DNA molecules are cross-linked). […]
(§2) The reaction mixture was comprised of 4 μL of 250 mM phosphate buffer (final concentration of 50 mM), 4 μL flourophor and 4 μL quencher molecule of the appropriate oligonucleotide for a final concentration of 0.2 PM, 4 μL 5 M sodium chloride (final concentration of 1 M NaCl), and 4 μL of distilled H2O. […] This mixture was analysed without prior annealing.
(§3) Fluorescence melting profiles were measured using a Roche LightCycler using a total reaction volume of 20 μL. […] Annealing steps and melting steps were all recorded and changes in fluorescence were measured at 520 nm. […]

[2] = system: fluorescently labelled DNA duplex 5′-[…]-3′; test: FRET DNA melting, FIG. 17 bottom sequence; type: binding; conditions: at higher concentrations; intra-strand cross-links
Description: as §1, §2, §3

Question: What does the source list for `COc1cc2c(cc1OCc1cccc(CC(=O)N3C[C@@H](CCl)c4c3cc(O)c3ccccc43)c1)N=C[C@@H]1CCCCN1C2=O` [Compound 42, (S)-3-((3-(2-((S)-1-(Chloromethyl)-5-hydroxy-1,2-dihydro-3H-benzo[e]indol-3-yl)-2-oxoethyl)benzyl)oxy)-2-methoxy-7,8,9,10-tetrahydrobenzo[e]pyrido[1,2-a][1,4]diazepin-12(6aH)-one]?
Answer: Tm value [1]: ~80 °C; Tm [2]: ~80 °C
